Results: PubChem BioAssay AID1259407 (Chemical Carcinogenesis Research Information System (CCRIS), 2018)
The source made the active and inactive calls. No rule for the calls is given here.

Tested on: CCRIS mutagenicity, Ames/micronucleus/aberration tests
Test: CCRIS mutagenicity studies
[1] = Test System: AMES SALMONELLA TYPHIMURIUM, Strain/Indicator: TA97, Metabolic Activation: NONE, Method: STANDARD PLATE
[2] = Test System: AMES SALMONELLA TYPHIMURIUM, Strain/Indicator: TA97, Metabolic Activation: RAT, LIVER, S-9, AROCLOR 1254, Method: STANDARD PLATE
[3] = Test System: AMES SALMONELLA TYPHIMURIUM, Strain/Indicator: TA98, Metabolic Activation: NONE, Method: STANDARD PLATE
[4] = Test System: AMES SALMONELLA TYPHIMURIUM, Strain/Indicator: TA98, Metabolic Activation: RAT, LIVER, S-9, AROCLOR 1254, Method: STANDARD PLATE
[5] = Test System: AMES SALMONELLA TYPHIMURIUM, Strain/Indicator: TA100, Metabolic Activation: NONE, Method: STANDARD PLATE
[6] = Test System: AMES SALMONELLA TYPHIMURIUM, Strain/Indicator: TA100, Metabolic Activation: RAT, LIVER, S-9, AROCLOR 1254, Method: STANDARD PLATE

N=C1C=CC(=C(c2ccc(N)cc2)c2ccc(N)cc2)C=C1
mutagenic call (End Point: IN VITRO CHROMOSOMAL ABERRATIONS, Test System: CHO CELLS, Metabolic Activation: NONE): inactive; negative | mutagenic call (End Point: IN VITRO CHROMOSOMAL ABERRATIONS, Test System: CHO CELLS, Metabolic Activation: RAT, LIVER, S-9, AROCLOR 1254): inactive; negative | mutagenic call [1]: inactive; negative | mutagenic call [2]: active; positive | mutagenic call (Test System: AMES SALMONELLA TYPHIMURIUM, Strain/Indicator: TA97A, Metabolic Activation: NONE, Method: STANDARD PLATE): inactive; negative | mutagenic call (Test System: AMES SALMONELLA TYPHIMURIUM, Strain/Indicator: TA97A, Metabolic Activation: RAT, LIVER, S-9, AROCLOR 1254, Method: STANDARD PLATE): inactive; negative | mutagenic call (Test System: AMES SALMONELLA TYPHIMURIUM, Strain/Indicator: TA98, Metabolic Activation: HAMSTER, LIVER, S-9, AROCLOR 1254, Method: STANDARD PLATE): active; positive | mutagenic call [3]: active; positive | mutagenic call [4]: active; positive | mutagenic call (Test System: AMES SALMONELLA TYPHIMURIUM, Strain/Indicator: TA100, Metabolic Activation: HAMSTER, LIVER, S-9, AROCLOR 1254, Method: STANDARD PLATE): active; positive | mutagenic call [5]: active; positive | mutagenic call [6]: active; positive | mutagenic call (Test System: AMES SALMONELLA TYPHIMURIUM, Strain/Indicator: TA1535, Metabolic Activation: HAMSTER, LIVER, S-9, AROCLOR 1254, Method: STANDARD PLATE): inactive; negative | mutagenic call (Test System: AMES SALMONELLA TYPHIMURIUM, Strain/Indicator: TA1535, Metabolic Activation: NONE, Method: STANDARD PLATE): inactive; negative | mutagenic call (Test System: AMES SALMONELLA TYPHIMURIUM, Strain/Indicator: TA1535, Metabolic Activation: RAT, LIVER, S-9, AROCLOR 1254, Method: STANDARD PLATE): inactive; negative | mutagenic call (Test System: AMES SALMONELLA TYPHIMURIUM, Strain/Indicator: TA1537, Metabolic Activation: HAMSTER, LIVER, S-9, AROCLOR 1254, Method: STANDARD PLATE): inactive; negative | mutagenic call (Test System: AMES SALMONELLA TYPHIMURIUM, Strain/Indicator: TA1537, Metabolic Activation: NONE, Method: STANDARD PLATE): inactive; negative | mutagenic call (Test System: AMES SALMONELLA TYPHIMURIUM, Strain/Indicator: TA1537, Metabolic Activation: RAT, LIVER, S-9, AROCLOR 1254, Method: STANDARD PLATE): inactive; negative | mutagenic call (Test System: E. COLI, Strain/Indicator: WP2 UVRA, Metabolic Activation: HAMSTER, LIVER, S-9, AROCLOR 1254, Method: STANDARD PLATE): inactive; negative | mutagenic call (Test System: E. COLI, Strain/Indicator: WP2 UVRA, Metabolic Activation: HAMSTER, LIVER, S-9, Method: STANDARD PLATE): inactive; negative | mutagenic call (Test System: E. COLI, Strain/Indicator: WP2 UVRA, Metabolic Activation: MOUSE, LIVER, S-9, AROCLOR 1254, Method: STANDARD PLATE): inactive; negative | mutagenic call (Test System: E. COLI, Strain/Indicator: WP2 UVRA, Metabolic Activation: MOUSE, LIVER, S-9, Method: STANDARD PLATE): inactive; negative | mutagenic call (Test System: E. COLI, Strain/Indicator: WP2 UVRA, Metabolic Activation: NONE, Method: STANDARD PLATE): inactive; negative | mutagenic call (Test System: E. COLI, Strain/Indicator: WP2 UVRA, Metabolic Activation: RAT, LIVER, S-9, AROCLOR 1254, Method: STANDARD PLATE): inactive; negative | mutagenic call (Test System: E. COLI, Strain/Indicator: WP2 UVRA, Metabolic Activation: RAT, LIVER, S-9, Method: STANDARD PLATE): inactive; negative | mutagenic call (Test System: MOUSE LYMPHOMA, Strain/Indicator: L5178Y (TK+/TK-), Metabolic Activation: NONE, Method: SUSPENSION/PLATE): active; positive | mutagenic call (Test System: MOUSE LYMPHOMA, Strain/Indicator: L5178Y (TK+/TK-), Metabolic Activation: RAT, LIVER, S-9, AROCLOR 1254, Method: SUSPENSION/PLATE): active; positive

CCC(CCC(C)O)COC(=O)c1ccccc1C(=O)O (configuration not stated)
mutagenic call [1]: inactive; negative | mutagenic call [2]: inactive; negative | mutagenic call (Test System: AMES SALMONELLA TYPHIMURIUM, Strain/Indicator: TA97, Metabolic Activation: RAT, LIVER, S-9, DI(2-ETHYLHEXYL)PHTHALATE, Method: STANDARD PLATE): inactive; negative | mutagenic call [3]: inactive; negative | mutagenic call [4]: inactive; negative | mutagenic call (Test System: AMES SALMONELLA TYPHIMURIUM, Strain/Indicator: TA98, Metabolic Activation: RAT, LIVER, S-9, DI(2-ETHYLHEXYL)PHTHALATE, Method: STANDARD PLATE): inactive; negative | mutagenic call [5]: inactive; negative | mutagenic call [6]: inactive; negative | mutagenic call (Test System: AMES SALMONELLA TYPHIMURIUM, Strain/Indicator: TA100, Metabolic Activation: RAT, LIVER, S-9, DI(2-ETHYLEXYL)PHTHALATE, Method: STANDARD PLATE): inactive; negative | mutagenic call (Test System: AMES SALMONELLA TYPHIMURIUM, Strain/Indicator: TA102, Metabolic Activation: NONE, Method: STANDARD PLATE): inactive; negative | mutagenic call (Test System: AMES SALMONELLA TYPHIMURIUM, Strain/Indicator: TA102, Metabolic Activation: RAT, LIVER, S-9, AROCLOR 1254, Method: STANDARD PLATE): inactive; negative | mutagenic call (Test System: AMES SALMONELLA TYPHIMURIUM, Strain/Indicator: TA102, Metabolic Activation: RAT, LIVER, S-9, DI(2-ETHYLHEXYL)PHTHALATE, Method: STANDARD PLATE): inactive; negative

N#Cc1cccc(/C=C/c2ccc([N+](=O)[O-])cc2)c1
mutagenic call (Test System: AMES SALMONELLA TYPHIMURIUM, Strain/Indicator: TA98(NR), Metabolic Activation: NONE, Method: STANDARD PLATE): active; positive | mutagenic call (Test System: AMES SALMONELLA TYPHIMURIUM, Strain/Indicator: TA98 (NR), Metabolic Activation: S-9, Method: STANDARD PLATE): active; positive | mutagenic call [3]: active; positive | mutagenic call (Test System: AMES SALMONELLA TYPHIMURIUM, Strain/Indicator: TA98, Metabolic Activation: S-9, Method: STANDARD PLATE): active; positive | mutagenic call (Test System: AMES SALMONELLA TYPHIMURIUM, Strain/Indicator: TA100 (NR), Metabolic Activation: NONE, Method: STANDARD PLATE): inactive; negative | mutagenic call (Test System: AMES SALMONELLA TYPHIMURIUM, Strain/Indicator: TA100(NR), Metabolic Activation: S-9, Method: STANDARD PLATE): inactive; negative | mutagenic call [5]: active; positive | mutagenic call (Test System: AMES SALMONELLA TYPHIMURIUM, Strain/Indicator: TA100, Metabolic Activation: S-9, Method: STANDARD PLATE): active; positive
